Laboratory results published in paper PMC11277489, “Novel Piperazine Derivatives of Vindoline as Anticancer Agents” (International Journal of Molecular Sciences, 2024).
Like-named read-outs stand apart in the source and are kept apart here.

Assays:
A498 = assay: NCI60 one-dose screen (10 μM), Renal Cancer; type: cell-based; settings: Homo sapiens
SNB-19 = assay: NCI60 five-dose screen, CNS Cancer; type: cell-based; settings: Homo sapiens, SNB-19
UACC-257 = assay: NCI60 five-dose screen, Melanoma; type: cell-based; settings: Homo sapiens, UACC-257
ACHN = assay: NCI60 five-dose screen, Renal Cancer; type: cell-based; settings: Homo sapiens
UACC-62 [1] = assay: NCI60 five-dose screen, Melanoma; type: cell-based; settings: Homo sapiens, UACC-62
OVCAR-8 = assay: NCI60 five-dose screen, Ovarian Cancer; type: cell-based; settings: Homo sapiens, OVCAR-8
U251 [2] = assay: NCI60 five-dose screen, CNS Cancer; type: cell-based; settings: Homo sapiens, U-251
TK-10 = assay: NCI60 one-dose screen (10 μM), Renal Cancer; type: cell-based; settings: Homo sapiens
HCT-15 = assay: NCI60 five-dose screen, Colon Cancer; type: cell-based; settings: Homo sapiens, HCT-15
UACC-62 [3] = assay: NCI60 one-dose screen (10 μM), Melanoma; type: cell-based; settings: Homo sapiens
SK-OV-3 [4] = assay: NCI60 one-dose screen (10 μM), Ovarian Cancer; type: cell-based; settings: Homo sapiens
[5] = tested on: 60 human tumor cell lines (NCI60); assay: NCI60 five-dose screen, whole panel and sub-panel means; type: cell-based; settings: Homo sapiens
DU-145 = assay: NCI60 five-dose screen, Prostate Cancer; type: cell-based; settings: Homo sapiens, DU-145
OVCAR-4 = assay: NCI60 five-dose screen, Ovarian Cancer; type: cell-based; settings: Homo sapiens, OVCAR-4
M14 = assay: NCI60 five-dose screen, Melanoma; type: cell-based; settings: Homo sapiens, M14
OVCAR-5 = assay: NCI60 one-dose screen (10 μM), Ovarian Cancer; type: cell-based; settings: Homo sapiens
KM12 = assay: NCI60 five-dose screen, Colon Cancer; type: cell-based; settings: Homo sapiens, KM12
HOP-62 = assay: NCI60 one-dose screen (10 μM), Non-small Cell Lung Cancer; type: cell-based; settings: Homo sapiens
RPMI-8226 [6] = assay: NCI60 one-dose screen (10 μM), Leukemia; type: cell-based; settings: Homo sapiens
UO-31 = assay: NCI60 one-dose screen (10 μM), Renal Cancer; type: cell-based; settings: Homo sapiens
MDA-MB231ATCC = assay: NCI60 five-dose screen, Breast Cancer; type: cell-based; settings: Homo sapiens, MDA-MB-231
NCI-H226 = assay: NCI60 one-dose screen (10 μM), Non-small Cell Lung Cancer; type: cell-based; settings: Homo sapiens
NCI-H322M = assay: NCI60 five-dose screen, Non-small Cell Lung Cancer; type: cell-based; settings: Homo sapiens
RPMI-8226 [7] = assay: NCI60 five-dose screen, Leukemia; type: cell-based; settings: Homo sapiens, RPMI-8226
BT-549 = assay: NCI60 one-dose screen (10 μM), Breast Cancer; type: cell-based; settings: Homo sapiens
MDA-MB-231/ATCC = assay: NCI60 one-dose screen (10 μM), Breast Cancer; type: cell-based, human; settings: Homo sapiens
COLO 205 = assay: NCI60 five-dose screen, Colon Cancer; type: cell-based; settings: Homo sapiens, COLO 205
OVCAR-3 = assay: NCI60 five-dose screen, Ovarian Cancer; type: cell-based; settings: Homo sapiens, OVCAR-3
LOX IMVI = assay: NCI60 five-dose screen, Melanoma; type: cell-based; settings: Homo sapiens
MCF7 = assay: NCI60 five-dose screen, Breast Cancer; type: cell-based; settings: Homo sapiens, MCF7
PC-3 = assay: NCI60 one-dose screen (10 μM), Prostate Cancer; type: cell-based; settings: Homo sapiens
SR = assay: NCI60 one-dose screen (10 μM), Leukemia; type: cell-based; settings: Homo sapiens, read-out: Growth percent rate
HS 578T = assay: NCI60 one-dose screen (10 μM), Breast Cancer; type: cell-based; settings: Homo sapiens, read-out: Growth percent rate
CAKI-1 = assay: NCI60 five-dose screen, Renal Cancer; type: cell-based; settings: Homo sapiens, CAKI-1
SK-OV-3 [8] = assay: NCI60 five-dose screen, Ovarian Cancer; type: cell-based; settings: Homo sapiens, SK-OV-3
NCI/ADR-RES = assay: NCI60 one-dose screen (10 μM), Ovarian Cancer; type: cell-based; settings: Homo sapiens, read-out: Growth percent rate
SN12C = assay: NCI60 five-dose screen, Renal Cancer; type: cell-based; settings: Homo sapiens
T-47D = assay: NCI60 one-dose screen (10 μM), Breast Cancer; type: cell-based; settings: Homo sapiens, T47D, read-out: Growth percent rate
U251 [9] = assay: NCI60 one-dose screen (10 μM), CNS Cancer; type: cell-based; settings: Homo sapiens
MDA-MB-468 [10] = assay: NCI60 five-dose screen, Breast Cancer; type: cell-based; settings: Homo sapiens, MDA-MB-468
HOP-92 [11] = assay: NCI60 five-dose screen, Non-small Cell Lung Cancer; type: cell-based; settings: Homo sapiens, HOP-92
MDA-MB-468 [12] = assay: NCI60 one-dose screen (10 μM), Breast Cancer; type: cell-based; settings: Homo sapiens; 10 μM; MDA-MB-468, Breast Cancer; read-out: Growth percent rate
HOP-92 [13] = assay: NCI60 one-dose screen (10 μM), Non-small Cell Lung Cancer; type: cell-based; settings: Homo sapiens; 10 μM; HOP-92, Non-small Cell Lung Cancer; read-out: Growth percent rate

Q: With `CC[C@]12C=CCN3CC[C@@]4(c5ccc(OC)cc5N(C)[C@H]4[C@@](O)(C(=O)OC)[C@@H]1OC(=O)CCCN1CCN(C(c4ccc(F)cc4)c4ccc(F)cc4)CC1)[C@@H]32` [Compound 25] as the compound, how does the activity at 10 µM (A498; A498, read-out: Growth percent rate) read?
A: -97.2%

Q: And the GI50 (SNB-19)?
A: 1660 nM

Q: And the GI50 (UACC-257)?
A: 1740 nM

Q: And the GI50 (ACHN)?
A: 2090 nM

Q: What about the GI50 (UACC-62 [1]) of the same compound?
A: 1780 nM

Q: What about the GI50 (OVCAR-8) of the same compound?
A: 2090 nM

Q: And the GI50 (U251 [2])?
A: 1550 nM

Q: What about the activity at 10 µM (TK-10; TK-10, read-out: Growth percent rate) of the same compound?
A: -90.4%

Q: And the GI50 (HCT-15)?
A: 1700 nM

Q: And the activity at 10 µM (UACC-62 [3]; UACC-62, read-out: Growth percent rate)?
A: -92.5%

Q: What about the activity at 10 µM (SK-OV-3 [4]; SK-OV-3, read-out: Growth percent rate) of the same compound?
A: -72.5%

Q: What about the GI50 ([5]; 60 cell, read-out: GI50 Mean, mean over all 60 cell lines) of the same compound?
A: 1850 nM

Q: And the GI50 ([5]; on almost all cell lines, five-dose screen)?
A: < 2000 nM

Q: And the GI50 ([5]; read-out: GI50 Mean, mean over Breast Cancer panel)?
A: 1670 nM

Q: And the GI50 ([5]; read-out: GI50 Mean, mean over CNS Cancer panel)?
A: 2210 nM

Q: And the GI50 ([5]; read-out: GI50 Mean, mean over Colon Cancer panel)?
A: 1730 nM

Q: What about the GI50 ([5]; read-out: GI50 Mean, mean over Leukemia panel) of the same compound?
A: 1760 nM

Q: And the GI50 ([5]; read-out: GI50 Mean, mean over Melanoma panel)?
A: 1780 nM

Q: And the GI50 ([5]; read-out: GI50 Mean, mean over Non-small Cell Lung Cancer panel)?
A: 1850 nM

Q: What about the GI50 ([5]; read-out: GI50 Mean, mean over Ovarian Cancer panel) of the same compound?
A: 1730 nM

Q: What about the GI50 ([5]; read-out: GI50 Mean, mean over Prostate Cancer panel) of the same compound?
A: 1650 nM

Q: And the GI50 ([5]; read-out: GI50 Mean, mean over Renal Cancer panel)?
A: 2180 nM

Q: What about the GI50 (DU-145) of the same compound?
A: 1780 nM

Q: And the GI50 (OVCAR-4)?
A: 1950 nM

Q: And the GI50 (M14)?
A: 1910 nM

Q: What about the activity at 10 µM (OVCAR-5; OVCAR-5, read-out: Growth percent rate) of the same compound?
A: -92%

Q: And the GI50 (KM12)?
A: 1780 nM

Q: And the activity at 10 µM (HOP-62; HOP-62, read-out: Growth percent rate)?
A: -77.2%

Q: What about the activity at 10 µM (RPMI-8226 [6]; RPMI-8226, read-out: Growth percent rate) of the same compound?
A: -50.1%

Q: What about the activity at 10 µM (UO-31; UO-31, read-out: Growth percent rate) of the same compound?
A: -97.8%

Q: What about the GI50 (MDA-MB231ATCC) of the same compound?
A: 1580 nM

Q: And the activity at 10 µM (NCI-H226; NCI-H226, read-out: Growth percent rate)?
A: -74.8%

Q: What about the GI50 (NCI-H322M) of the same compound?
A: 1950 nM

Q: And the GI50 (RPMI-8226 [7])?
A: 1950 nM

Q: What about the activity at 10 µM (BT-549; BT-549, read-out: Growth percent rate) of the same compound?
A: -92.4%

Q: And the activity at 10 µM (MDA-MB-231/ATCC; MDA-MB-231, read-out: Growth percent rate)?
A: -94%

Q: And the GI50 (COLO 205)?
A: 1660 nM

Q: And the GI50 (OVCAR-3)?
A: 1740 nM

Q: What about the GI50 (LOX IMVI) of the same compound?
A: 1740 nM

Q: And the GI50 (MCF7)?
A: 1700 nM

Q: What about the activity at 10 µM (PC-3; PC-3, read-out: Growth percent rate) of the same compound?
A: -72.3%

Q: What about the activity at 10 µM (SR) of the same compound?
A: -43.6%

Q: And the activity at 10 µM (HS 578T; Hs-578T)?
A: -60%

Q: What about the GI50 (CAKI-1) of the same compound?
A: 1480 nM

Q: And the GI50 (SK-OV-3 [8])?
A: 1550 nM

Q: And the activity at 10 µM (NCI/ADR-RES)?
A: -80.8%

Q: What about the GI50 (SN12C) of the same compound?
A: 1660 nM

Q: What about the activity at 10 µM (T-47D) of the same compound?
A: -64.6%

Q: And the activity at 10 µM (U251 [9]; U-251, read-out: Growth percent rate)?
A: -79%

Q: And the GI50 (MDA-MB-468 [10])?
A: 1510 nM

Q: What about the GI50 (HOP-92 [11]) of the same compound?
A: 1350 nM

Q: For `CCC12C=CCN3CCC4(c5ccc(OC)cc5N(C)C4C(O)(C(=O)OC)C1OC(=O)CCCBr)C32` (stereo not shown) [Compound 14, 17-(O-4-bromobutanoyl)vindoline], which activity at 10 µM (A498; 10 μM, A498, Renal Cancer, read-out: Growth percent rate) is on record?
A: 90.1%

Q: What about the activity at 10 µM (TK-10; 10 μM, TK-10, Renal Cancer, read-out: Growth percent rate) of the same compound?
A: 100%

Q: What about the activity at 10 µM (UACC-62 [3]; 10 μM, UACC-62, Melanoma, read-out: Growth percent rate) of the same compound?
A: 83.8%

Q: And the activity at 10 µM (SK-OV-3 [4]; 10 μM, SK-OV-3, Ovarian Cancer, read-out: Growth percent rate)?
A: 101%

Q: What about the activity at 10 µM (OVCAR-5; 10 μM, OVCAR-5, Ovarian Cancer, read-out: Growth percent rate) of the same compound?
A: 101%

Q: And the activity at 10 µM (HOP-62; 10 μM, HOP-62, Non-small Cell Lung Cancer, read-out: Growth percent rate)?
A: 101%

Q: And the activity at 10 µM (RPMI-8226 [6]; 10 μM, RPMI-8226, Leukemia, read-out: Growth percent rate)?
A: 91.4%

Q: And the activity at 10 µM (MDA-MB-468 [12])?
A: 95.7%

Q: What about the activity at 10 µM (UO-31; 10 μM, UO-31, Renal Cancer, read-out: Growth percent rate) of the same compound?
A: 82.5%

Q: And the activity at 10 µM (NCI-H226; 10 μM, NCI-H226, Non-small Cell Lung Cancer, read-out: Growth percent rate)?
A: 96%

Q: What about the activity at 10 µM (BT-549; 10 μM, BT-549, Breast Cancer, read-out: Growth percent rate) of the same compound?
A: 99.1%

Q: What about the activity at 10 µM (MDA-MB-231/ATCC; 10 μM, MDA-MB-231/ATCC, Breast Cancer, read-out: Growth percent rate) of the same compound?
A: 90.6%

Q: And the activity at 10 µM (PC-3; 10 μM, PC-3, Prostate Cancer, read-out: Growth percent rate)?
A: 79%

Q: And the activity at 10 µM (SR; 10 μM, Leukemia)?
A: 98.4%

Q: And the activity at 10 µM (HS 578T; 10 μM, HS 578T, Breast Cancer)?
A: 94.5%

Q: What about the activity at 10 µM (NCI/ADR-RES; 10 μM, Ovarian Cancer) of the same compound?
A: 89.2%

Q: And the activity at 10 µM (HOP-92 [13])?
A: 77.6%

Q: What about the activity at 10 µM (T-47D; 10 μM, T-47D, Breast Cancer) of the same compound?
A: 77.2%

Q: And the activity at 10 µM (U251 [9]; U-251, 10 μM, U251, CNS Cancer, read-out: Growth percent rate)?
A: 87.2%
